{
  "source": "patent US7612200B2",
  "about": "“Inhibitors of protein kinases” (Locus Pharmaceuticals, Inc., priority 2004, dated 2009)",
  "key": {"[1]": {"molecular_target": "T1, EphB4 (Homo sapiens, UniProt P54760)", "T1 sequence (P54760 16-987)": "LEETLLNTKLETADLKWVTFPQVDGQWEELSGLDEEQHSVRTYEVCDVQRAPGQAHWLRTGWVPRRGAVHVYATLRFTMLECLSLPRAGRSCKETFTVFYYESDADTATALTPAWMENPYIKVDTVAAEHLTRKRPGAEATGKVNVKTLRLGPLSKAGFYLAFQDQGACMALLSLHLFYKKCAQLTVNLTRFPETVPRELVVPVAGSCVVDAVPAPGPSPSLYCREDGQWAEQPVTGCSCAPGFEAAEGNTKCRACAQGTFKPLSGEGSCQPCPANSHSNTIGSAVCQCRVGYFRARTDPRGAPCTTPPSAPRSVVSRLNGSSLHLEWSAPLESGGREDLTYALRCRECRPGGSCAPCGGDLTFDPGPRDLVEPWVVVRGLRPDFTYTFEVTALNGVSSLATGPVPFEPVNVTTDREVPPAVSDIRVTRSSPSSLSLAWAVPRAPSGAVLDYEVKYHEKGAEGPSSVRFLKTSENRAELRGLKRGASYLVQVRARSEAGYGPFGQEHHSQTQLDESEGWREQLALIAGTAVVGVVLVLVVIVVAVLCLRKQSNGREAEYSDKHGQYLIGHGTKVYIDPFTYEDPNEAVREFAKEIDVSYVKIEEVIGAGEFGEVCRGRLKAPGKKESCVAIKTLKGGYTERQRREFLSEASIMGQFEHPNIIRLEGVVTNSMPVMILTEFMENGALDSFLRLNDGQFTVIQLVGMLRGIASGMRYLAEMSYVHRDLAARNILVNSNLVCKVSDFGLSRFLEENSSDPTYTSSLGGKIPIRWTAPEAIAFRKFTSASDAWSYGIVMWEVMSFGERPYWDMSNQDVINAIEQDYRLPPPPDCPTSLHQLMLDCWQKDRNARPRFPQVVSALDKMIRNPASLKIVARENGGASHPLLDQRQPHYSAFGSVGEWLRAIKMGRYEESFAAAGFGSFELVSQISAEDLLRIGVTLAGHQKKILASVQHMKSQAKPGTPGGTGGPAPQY", "test": "Kinase activity at ATP Km,app, EphB4", "format": "biochemical", "conditions": "40 min, compound 2 μM", "protocol": "(§1) EphB4 Kinase Activity: In a final reaction volume of 25 μl, EphB4 (h) (5-10 mU) is incubated with 8 mM MOPS pH 7.0, 0.2 mM EDTA, 10 mM MnCl2, 0.1 mg/ml poly(Glue, Tyr) 4:1, 10 mM MgAcetate and [γ-^33P-ATP] (specific activity approx. 500 cpm/pmol, concentration as required). The reaction is initiated by the addition of the MgATP mix. After incubatin for 40 minutes at room temperature, the reaction is stopped by the addition of 5 μl of a 3% phosphoric acid solution. 10 μl of the reaction is then spotted onto a Filtermat A and washed three times for 5 minutes in 75 mM phosphoric acid and once in methanol prior to drying and scintillating counting."}, "[2]": {"tested_on": "Abl1", "test": "Kinase activity at ATP Km,app, Abl1", "format": "biochemical, mouse", "conditions": "compound 2 μM", "protocol": "Abl Kinase activity: In a final reaction volume of 25 μL, Able (m) (5-10 mU) is incubated with […] pH 7.0, 0.2 mM EDTA, 50 μM EAIYAAPFAKKK, 10 mM MgAcetate and [γ-^33P-ATP] (specific activity approx. 500 cpm/pmol, concentration as required). The reaction is initiated by the addition of the MgATP mix. After incubation for 40 minutes at room temperature, the reaction is stopped by the addition of 5 μL of a 3% phosphoric acid solution. 10 μL of the reaction is then spotted onto a P30 filtermat and washed three times for 5 minutes in 75 mM phosphoric acid and once in methanol prior to drying and scintillation counting."}, "[3]": {"molecular_target": "FGFR1 (Homo sapiens, UniProt P11362)", "sequence (P11362 22-822, species assumed)": "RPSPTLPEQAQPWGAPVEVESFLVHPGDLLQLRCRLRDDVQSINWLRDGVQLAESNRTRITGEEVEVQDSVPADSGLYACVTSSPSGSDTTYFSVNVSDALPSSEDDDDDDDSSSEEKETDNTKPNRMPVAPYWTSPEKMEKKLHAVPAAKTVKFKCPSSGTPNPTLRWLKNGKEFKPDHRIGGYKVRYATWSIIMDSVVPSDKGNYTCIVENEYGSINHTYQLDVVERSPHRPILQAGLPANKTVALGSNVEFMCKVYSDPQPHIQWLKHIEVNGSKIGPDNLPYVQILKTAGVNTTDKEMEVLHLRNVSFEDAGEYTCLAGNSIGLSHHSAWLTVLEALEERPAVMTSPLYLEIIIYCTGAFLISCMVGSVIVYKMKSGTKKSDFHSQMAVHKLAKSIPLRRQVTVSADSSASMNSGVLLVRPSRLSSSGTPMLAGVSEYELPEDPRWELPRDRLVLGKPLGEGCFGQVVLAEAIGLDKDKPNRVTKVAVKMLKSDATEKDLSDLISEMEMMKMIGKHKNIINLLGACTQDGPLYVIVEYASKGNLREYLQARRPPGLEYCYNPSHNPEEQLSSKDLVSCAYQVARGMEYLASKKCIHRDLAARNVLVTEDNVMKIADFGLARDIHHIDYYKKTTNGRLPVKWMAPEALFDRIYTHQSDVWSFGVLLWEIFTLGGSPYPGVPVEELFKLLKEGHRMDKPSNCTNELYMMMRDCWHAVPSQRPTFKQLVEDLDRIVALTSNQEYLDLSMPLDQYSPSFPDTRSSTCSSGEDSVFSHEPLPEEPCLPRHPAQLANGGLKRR", "test": "Kinase activity at ATP Km,app, FGFR1", "format": "biochemical", "conditions": "compound 2 μM"}, "[4]": {"molecular_target": "ERK2 (Homo sapiens, UniProt P28482)", "sequence (P28482 whole entry, species assumed)": "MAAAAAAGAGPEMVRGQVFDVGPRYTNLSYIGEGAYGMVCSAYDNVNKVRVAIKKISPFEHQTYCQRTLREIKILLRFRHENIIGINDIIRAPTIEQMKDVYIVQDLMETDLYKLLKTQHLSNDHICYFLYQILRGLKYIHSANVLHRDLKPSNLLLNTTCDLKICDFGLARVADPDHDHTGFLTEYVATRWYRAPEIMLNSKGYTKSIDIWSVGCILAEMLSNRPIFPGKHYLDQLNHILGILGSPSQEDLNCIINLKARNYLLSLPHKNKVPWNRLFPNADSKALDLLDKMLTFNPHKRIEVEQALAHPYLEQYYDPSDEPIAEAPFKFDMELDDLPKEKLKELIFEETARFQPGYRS", "test": "Kinase activity at ATP Km,app, ERK2", "format": "biochemical", "conditions": "compound 2 μM"}, "[5]": {"molecular_target": "PDGFR-beta (Homo sapiens, UniProt P09619)", "sequence (P09619 33-1106)": "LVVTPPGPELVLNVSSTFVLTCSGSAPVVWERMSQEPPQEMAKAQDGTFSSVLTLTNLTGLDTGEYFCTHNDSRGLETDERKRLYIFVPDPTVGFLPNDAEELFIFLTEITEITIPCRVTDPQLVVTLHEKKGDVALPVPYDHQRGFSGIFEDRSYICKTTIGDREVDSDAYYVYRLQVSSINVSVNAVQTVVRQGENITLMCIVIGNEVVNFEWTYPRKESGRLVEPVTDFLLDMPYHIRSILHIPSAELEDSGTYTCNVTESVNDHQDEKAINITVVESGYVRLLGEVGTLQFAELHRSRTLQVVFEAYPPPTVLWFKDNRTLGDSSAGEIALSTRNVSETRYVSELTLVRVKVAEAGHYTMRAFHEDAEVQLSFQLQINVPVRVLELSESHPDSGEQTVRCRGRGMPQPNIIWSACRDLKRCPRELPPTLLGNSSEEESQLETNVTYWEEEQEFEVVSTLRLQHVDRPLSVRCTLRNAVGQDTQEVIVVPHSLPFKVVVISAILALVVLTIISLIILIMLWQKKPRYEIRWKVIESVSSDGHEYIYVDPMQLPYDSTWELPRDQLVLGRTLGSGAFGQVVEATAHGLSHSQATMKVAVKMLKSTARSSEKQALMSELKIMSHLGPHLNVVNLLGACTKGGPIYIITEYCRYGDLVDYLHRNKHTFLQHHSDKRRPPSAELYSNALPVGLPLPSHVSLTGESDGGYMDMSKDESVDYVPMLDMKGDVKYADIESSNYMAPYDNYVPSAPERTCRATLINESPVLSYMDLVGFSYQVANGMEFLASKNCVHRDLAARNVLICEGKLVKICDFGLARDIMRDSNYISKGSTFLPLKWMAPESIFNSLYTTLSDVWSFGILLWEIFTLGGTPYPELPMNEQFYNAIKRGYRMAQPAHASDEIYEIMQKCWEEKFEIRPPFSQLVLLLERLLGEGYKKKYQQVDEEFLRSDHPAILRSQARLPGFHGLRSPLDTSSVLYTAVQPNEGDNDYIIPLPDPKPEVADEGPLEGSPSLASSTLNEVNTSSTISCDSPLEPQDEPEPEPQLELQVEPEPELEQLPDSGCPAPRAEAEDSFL", "test": "Kinase activity at ATP Km,app, PDGFR-beta", "format": "biochemical", "conditions": "40 min, compound 2 μM", "protocol": "as §1, with “PDGFRβ” for “EphB4”, “7.0” for “7.0,”, “EDTA, 0.1 mg/ml poly(Glu, Tyr) 4:1,” for “EDTA,”, “MnCl2,” for “MnCl2, 0.1 mg/ml poly(Glue, Tyr) 4:1,”, “incubation” for “incubatin”, “scintillation” for “scintillating”"}, "[6]": {"molecular_target": "MAPKAP-K2 (Homo sapiens, UniProt P49137)", "sequence (P49137 whole entry)": "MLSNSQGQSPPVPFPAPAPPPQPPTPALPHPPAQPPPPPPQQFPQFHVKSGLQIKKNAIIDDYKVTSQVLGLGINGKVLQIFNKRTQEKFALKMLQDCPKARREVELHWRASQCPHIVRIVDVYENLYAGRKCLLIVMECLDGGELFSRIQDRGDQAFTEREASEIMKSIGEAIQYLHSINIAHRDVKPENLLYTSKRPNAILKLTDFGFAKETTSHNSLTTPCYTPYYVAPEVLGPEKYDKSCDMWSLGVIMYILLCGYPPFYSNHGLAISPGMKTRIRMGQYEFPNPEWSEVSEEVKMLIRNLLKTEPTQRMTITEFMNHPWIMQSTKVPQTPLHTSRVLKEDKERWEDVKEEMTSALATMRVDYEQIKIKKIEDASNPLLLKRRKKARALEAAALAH", "test": "Kinase activity at ATP Km,app, MAPKAP-K2", "format": "biochemical", "conditions": "40 min, compound 2 μM", "protocol": "MAPKAP-K2 Kinase Activity: In a final reaction volume of 25 μl, MAPKAP-K2 (h) (5-10 mU) is incubated with 50 mM Na-β-glycerophosphate pH 7.5, 0.1 mM EGTA, […] KKLNRTLSVA, 10 mM MgAcetate and [γ-^33P-ATP] (specific activity approx. 500 cpm/pmol, concentration as required). The reaction is initiated by the addition of the MgATP mix. After incubation for 40 minutes at room temperature, the reaction is stopped by the addition of 5 μl of a 3% phosphoric acid solution. 10 μl of the reaction is then spotted onto a P30 filtermat and washed three times for 5 minutes in 75 mM phosphoric acid and once in methanol prior to drying and scintillation counting."}, "[7]": {"molecular_target": "c-MET (Homo sapiens, UniProt P08581)", "sequence (P08581 25-1390)": "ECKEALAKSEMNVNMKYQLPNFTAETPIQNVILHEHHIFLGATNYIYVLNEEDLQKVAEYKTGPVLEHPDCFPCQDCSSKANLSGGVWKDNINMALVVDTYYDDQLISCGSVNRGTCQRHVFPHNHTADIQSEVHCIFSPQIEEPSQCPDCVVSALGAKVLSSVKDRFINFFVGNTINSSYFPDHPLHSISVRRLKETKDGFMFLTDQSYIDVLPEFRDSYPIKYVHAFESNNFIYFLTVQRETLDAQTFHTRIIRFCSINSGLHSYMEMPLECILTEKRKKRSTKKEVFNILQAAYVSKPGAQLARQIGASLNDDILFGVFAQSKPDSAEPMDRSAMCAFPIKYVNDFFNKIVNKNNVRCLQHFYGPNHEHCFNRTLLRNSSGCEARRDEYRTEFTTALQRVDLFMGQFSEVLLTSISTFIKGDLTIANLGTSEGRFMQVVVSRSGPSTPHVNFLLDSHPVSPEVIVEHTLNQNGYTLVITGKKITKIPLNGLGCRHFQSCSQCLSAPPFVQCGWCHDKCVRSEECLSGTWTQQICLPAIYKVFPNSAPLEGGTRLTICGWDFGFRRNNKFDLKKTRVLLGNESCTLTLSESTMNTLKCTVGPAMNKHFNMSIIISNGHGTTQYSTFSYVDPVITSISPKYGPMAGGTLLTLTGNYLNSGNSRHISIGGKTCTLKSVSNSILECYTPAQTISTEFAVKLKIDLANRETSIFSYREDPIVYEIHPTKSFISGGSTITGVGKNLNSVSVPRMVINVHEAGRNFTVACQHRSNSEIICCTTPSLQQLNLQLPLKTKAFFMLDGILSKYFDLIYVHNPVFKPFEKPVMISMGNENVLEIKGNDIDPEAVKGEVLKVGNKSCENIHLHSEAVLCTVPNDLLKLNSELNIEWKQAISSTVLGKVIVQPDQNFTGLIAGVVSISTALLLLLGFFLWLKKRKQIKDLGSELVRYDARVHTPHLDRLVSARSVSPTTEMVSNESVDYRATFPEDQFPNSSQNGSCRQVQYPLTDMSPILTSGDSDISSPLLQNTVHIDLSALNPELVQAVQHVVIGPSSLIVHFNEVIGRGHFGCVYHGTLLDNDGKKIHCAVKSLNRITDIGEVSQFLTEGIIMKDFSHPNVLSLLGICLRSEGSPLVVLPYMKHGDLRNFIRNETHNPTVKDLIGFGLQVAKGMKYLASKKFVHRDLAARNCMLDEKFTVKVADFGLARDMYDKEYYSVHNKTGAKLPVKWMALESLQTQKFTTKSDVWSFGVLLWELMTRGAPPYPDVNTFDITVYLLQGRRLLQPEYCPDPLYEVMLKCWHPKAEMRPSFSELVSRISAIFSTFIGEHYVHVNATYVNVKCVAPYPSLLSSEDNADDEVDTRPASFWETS", "test": "Kinase activity at ATP Km,app, c-MET", "format": "biochemical", "conditions": "compound 2 μM", "protocol": "Met Kinase Activity: In a final reaction volume of 25 μl, Met (h) (5-10 mU) is incubated with 8 mM MOPS pH 7.0, 0.2 mM EDTA, 250 μM KKKSPEGYVNIEFG, 10 mM MgAcetate and [γ-^33P-ATP] (specific activity approx. 500 cpm/pmol, concentration as required). The reaction is initiated by the addition of the MgATP mix. After incubation for 40 minutes at room temperature, the reaction is stopped by the addition of 5 μl of a 3% phosphoric acid solution. 10 μl of the reaction is then spotted onto a P30 filtermat and washed three times for 5 minutes in 75 mM phosphoric acid and once in methanol prior to drying and scintillation counting."}},
  "data": [
    {"molecule": "CC(C)(C)c1cc(C(=O)N2CCNC(=O)C2)c(NC(=O)Nc2ccc(Oc3ccncc3)cc2)s1", "note": "[Example 2, 1-(5-tert-Butyl-3-(3-oxo-piperazine-1-carbonyl)thiophen-2-yl)-3-(4-(pyridin-4-yloxy)phenyl)urea]", "values": [
      {"measurement": "inhibition at 2 µM", "setting": "[1]", "value": "76 to 100", "unit": "%"},
      {"measurement": "% Inhibition at ATP Km,app", "setting": "[2]", "value": "0-25%"},
      {"measurement": "inhibition at 2 µM", "setting": "[3]", "value": "0 to 25", "unit": "%"},
      {"measurement": "inhibition at 2 µM", "setting": "[4]", "value": "0 to 25", "unit": "%"},
      {"measurement": "inhibition at 2 µM", "setting": "[5]", "value": "26 to 50", "unit": "%"},
      {"measurement": "inhibition at 2 µM", "setting": "[6]", "value": "0 to 25", "unit": "%"},
      {"measurement": "% Inhibition at ATP Km,app", "setting": "[7]", "value": "26-50%"}
    ]},
    {"molecule": "CC(C)(C)c1cc(C(=O)N2CCNC(=O)CC2)c(NC(=O)Nc2ccc(Oc3ccncc3)cc2)s1", "note": "[Example 4, 1-(5-tert-Butyl-3-(5-oxo-[1,4]diazepane-1-carbonyl)thiophen-2-yl)-3-(4-(pyridin-4-yloxy)phenyl)urea]", "values": [
      {"measurement": "inhibition at 2 µM", "setting": "[1]", "value": "76 to 100", "unit": "%"},
      {"measurement": "% Inhibition at ATP Km,app", "setting": "[2]", "value": "0-25%"},
      {"measurement": "inhibition at 2 µM", "setting": "[3]", "value": "26 to 50", "unit": "%"},
      {"measurement": "inhibition at 2 µM", "setting": "[4]", "value": "0 to 25", "unit": "%"},
      {"measurement": "inhibition at 2 µM", "setting": "[5]", "value": "26 to 50", "unit": "%"},
      {"measurement": "inhibition at 2 µM", "setting": "[6]", "value": "0 to 25", "unit": "%"},
      {"measurement": "% Inhibition at ATP Km,app", "setting": "[7]", "value": "0-25%"}
    ]},
    {"molecule": "CC(C)(C)c1cc(C(=O)N2CCNS(=O)(=O)CC2)c(NC(=O)Nc2ccc(Oc3ccncc3)cc2)s1", "note": "[Example 1, 1-(5-tert-Butyl-3-(1,1-dioxo-1λ^6-[1,2,5]thiadiazepane-5-carbonyl)thiophen-2-yl)-3-(4-(pyridin-4-yloxy)phenyl)urea]", "values": [
      {"measurement": "inhibition at 2 µM", "setting": "[1]", "value": "76 to 100", "unit": "%"},
      {"measurement": "% Inhibition at ATP Km,app", "setting": "[2]", "value": "0-25%"},
      {"measurement": "inhibition at 2 µM", "setting": "[3]", "value": "0 to 25", "unit": "%"},
      {"measurement": "inhibition at 2 µM", "setting": "[4]", "value": "0 to 25", "unit": "%"},
      {"measurement": "inhibition at 2 µM", "setting": "[5]", "value": "26 to 50", "unit": "%"},
      {"measurement": "inhibition at 2 µM", "setting": "[6]", "value": "0 to 25", "unit": "%"},
      {"measurement": "% Inhibition at ATP Km,app", "setting": "[7]", "value": "0-25%"}
    ]}
  ]
}
